Assay results taken from patent publication US20260184726A1, “HETEROCYCLIC COMPOUNDS AS KINASE INHIBITORS, COMPOSITIONS, AND METHODS OF USE THEREOF” (JS INNOMED HOLDINGS LTD., priority 2022, published 2026).

Legend:
BAF3 cells = assay: BAF3 Cell Proliferation Assay (CellTiter-Glo, without RET driven, IL-3); format: cell-based; settings: Mus musculus; growth inhibition in BAF3 cells, 72 hours, with IL-3; read-out: BAF3 Cellular Activity
Method in brief: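 BAF3 cells in RPMI-1640 with 10% FBS and 1 ng/ml IL-3, seeded 2,000/well and settled 24 h at 37 °C, then exposed to compound at final 10 μM down to 0.0015 μM (0.1% DMSO) for 72 h. Viability by CellTiter-Glo luminescence versus DMSO controls; IC50 from curve fit.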

BAF3-KIF5B-RET cells = target: T1, BAF3-KIF5B-RET cells (Homo sapiens, UniProt P07949); assay: BAF3-KIF5B-RET Cell Proliferation Assay (CellTiter-Glo); format: cell-based; settings: growth inhibition, 72 hours; Table 2; read-out: BA/F3-KIF5B-RET Cellular activity
T1 construct: fused on or other part: P33176 (Kinesin-1 heavy chain)
T1 sequence (P07949 whole entry, change not shown, the tested form may be a part): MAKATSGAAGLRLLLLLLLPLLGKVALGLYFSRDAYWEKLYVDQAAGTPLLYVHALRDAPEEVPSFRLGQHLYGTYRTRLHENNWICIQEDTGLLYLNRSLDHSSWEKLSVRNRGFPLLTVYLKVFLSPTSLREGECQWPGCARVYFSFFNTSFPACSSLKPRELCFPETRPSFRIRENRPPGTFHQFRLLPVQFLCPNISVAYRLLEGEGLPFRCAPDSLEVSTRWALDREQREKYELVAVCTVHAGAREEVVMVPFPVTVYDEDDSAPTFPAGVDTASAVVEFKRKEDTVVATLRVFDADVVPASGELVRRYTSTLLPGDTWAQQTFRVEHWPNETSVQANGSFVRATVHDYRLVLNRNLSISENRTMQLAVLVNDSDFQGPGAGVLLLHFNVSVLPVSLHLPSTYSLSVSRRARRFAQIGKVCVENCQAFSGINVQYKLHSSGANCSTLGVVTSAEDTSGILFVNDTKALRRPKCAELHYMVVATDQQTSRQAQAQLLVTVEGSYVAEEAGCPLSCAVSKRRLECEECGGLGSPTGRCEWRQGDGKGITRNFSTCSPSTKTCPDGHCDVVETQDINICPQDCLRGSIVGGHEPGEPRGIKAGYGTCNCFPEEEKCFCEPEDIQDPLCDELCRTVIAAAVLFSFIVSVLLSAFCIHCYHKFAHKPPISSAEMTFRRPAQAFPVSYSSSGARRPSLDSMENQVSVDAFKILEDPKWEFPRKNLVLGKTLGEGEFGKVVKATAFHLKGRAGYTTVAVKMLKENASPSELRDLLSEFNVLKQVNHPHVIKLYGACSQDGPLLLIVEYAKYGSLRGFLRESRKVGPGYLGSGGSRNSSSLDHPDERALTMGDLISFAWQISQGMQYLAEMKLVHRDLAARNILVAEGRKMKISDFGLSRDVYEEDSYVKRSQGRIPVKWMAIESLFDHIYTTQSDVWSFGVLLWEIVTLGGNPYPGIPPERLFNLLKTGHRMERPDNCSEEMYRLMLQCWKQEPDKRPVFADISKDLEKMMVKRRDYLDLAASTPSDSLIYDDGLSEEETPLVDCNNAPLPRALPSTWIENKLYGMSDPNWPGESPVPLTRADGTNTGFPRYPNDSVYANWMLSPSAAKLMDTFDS
Method in brief: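 Ba/F3 cells driven by KIF5B-RET (wild-type, V804M or G810R) or TEL-RET-M918T, 2,000 per well in RPMI/10% FBS, attached 24 h. Treated 72 h at 37° C with compound from 0.00015 to 1 μM final, 0.1% DMSO. CellTiter-Glo luminescence relative to DMSO wells gave IC50.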

human RET kinase = target: T2, human RET kinase (Homo sapiens, UniProt P07949); assay: RET Kinase Assay (mobility shift assay, ATP at Km); format: biochemical; settings: 23 μM ATP (Km), read-out: RET Enzymatic Activity
T2 construct: purchased Carna 08-159
T2 sequence (P07949 29-1114): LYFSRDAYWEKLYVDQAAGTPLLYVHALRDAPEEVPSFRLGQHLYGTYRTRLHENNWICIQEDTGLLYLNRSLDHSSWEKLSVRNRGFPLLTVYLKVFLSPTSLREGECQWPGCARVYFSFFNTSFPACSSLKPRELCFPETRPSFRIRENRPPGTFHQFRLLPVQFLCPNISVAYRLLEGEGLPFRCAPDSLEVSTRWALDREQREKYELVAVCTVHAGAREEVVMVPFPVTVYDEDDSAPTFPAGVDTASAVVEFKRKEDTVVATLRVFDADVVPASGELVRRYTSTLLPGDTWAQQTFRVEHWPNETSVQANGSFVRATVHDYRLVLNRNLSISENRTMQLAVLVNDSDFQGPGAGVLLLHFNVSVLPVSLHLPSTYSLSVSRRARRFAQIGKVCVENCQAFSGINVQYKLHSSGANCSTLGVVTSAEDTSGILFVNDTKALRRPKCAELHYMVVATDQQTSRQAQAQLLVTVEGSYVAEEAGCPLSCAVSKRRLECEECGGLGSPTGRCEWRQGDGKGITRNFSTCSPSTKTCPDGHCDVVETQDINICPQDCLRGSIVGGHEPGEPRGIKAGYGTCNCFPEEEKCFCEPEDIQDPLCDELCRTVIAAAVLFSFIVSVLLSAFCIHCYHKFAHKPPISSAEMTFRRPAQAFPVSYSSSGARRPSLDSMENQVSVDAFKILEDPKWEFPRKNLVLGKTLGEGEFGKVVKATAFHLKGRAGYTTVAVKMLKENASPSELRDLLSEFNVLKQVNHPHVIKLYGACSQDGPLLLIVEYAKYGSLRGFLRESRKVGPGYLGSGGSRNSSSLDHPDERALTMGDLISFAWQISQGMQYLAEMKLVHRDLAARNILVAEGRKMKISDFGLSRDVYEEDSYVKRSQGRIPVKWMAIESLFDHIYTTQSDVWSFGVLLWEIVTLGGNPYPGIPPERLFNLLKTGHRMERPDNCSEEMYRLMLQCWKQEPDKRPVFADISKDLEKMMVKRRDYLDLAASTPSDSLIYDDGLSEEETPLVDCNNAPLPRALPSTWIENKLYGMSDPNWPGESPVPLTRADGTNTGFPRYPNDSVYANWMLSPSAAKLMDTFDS
Description: Compounds were tested by Mobility shift assay with ATP concentration at Km. The assay used human RET kinase (Carna 08-159). Test compounds were prepared and diluted in DMSO in 3-fold serial dilutions to 50× of the final testing concentrations. The compounds were then further diluted to 5× by the kinase reaction buffer (50 mM HEPES pH 7.5, 0.0015% Brij-35). The enzymatic reaction for compound testing was performed in a white 384-well polypropylene plate (Corning 3573) with a total reaction volume of 25 μl containing 7 nM RET, 3 μM peptide substrate FAM-P2 (GL Biochem 112394), and 23 μM ATP (Sigma A7699-1G). The assay started with loading RET diluted in kinase reaction buffer to wells, followed by addition of equal volume of 5× compounds for 15-min incubation at the room temperature for pre-treatment. The enzymatic reaction was initiated by addition of mixture of the substrate and ATP prepared in kinase reaction buffer. After incubation at 28° C. for one hour, 25 μl of stopper buffer (a mixture of 100 mM HEPES pH 7.5 buffer, 0.015% Brij-35, 50 mM EDTA and 0.2% of coating reagent 3 (Cliper Lifesciences)). After 30 minutes of incubation at room temperature, the plate was read in a Caliper. Percent of control was calculated as the percentage of compound-treated vs 2% DMSO vehicle-treated. The dose-response curves were generated and the IC50 values were calculated by nonlinear sigmoid curve fitting using XLFit.

For COc1ccc(CN2C3CC2CN(c2ccc(-c4cc(-c5ccc(C(C)(C)NC(C)=O)cn5)cn5ncc(C#N)c45)cn2)C3)cn1 [Example 12, N-(2-(6-(3-cyano-4-(6-(6-((6-methoxypyridin-3-yl)methyl)-3,6-diazabicyclo[3.1.1]heptan-3-yl)pyridin-3-yl)pyrazolo[1,5-a]pyridin-6-yl)pyridin-3-yl)propan-2-yl)acetamide], the IC50 (BAF3 cells) was 1050 nM, the GI50 (BAF3-KIF5B-RET cells) was 1 nM and the IC50 (human RET kinase) was 0.4 nM.
